Test results published in patent US7476675B2, “Quinolinone derivatives and uses thereof” (Roche Palo Alto LLC, priority 2003, dated 2009).
Counter-ions that a name gives are not always drawn.

Legend:
[1] = biological target: T1, recombinant human 5-HT6 receptor (Homo sapiens, UniProt P50406); assay: Radioligand binding studies: competition for [3H]LSD binding in membranes of HEK293 cells expressing the receptor; details: [3H]LSD (5 nM), HEK293 cell membranes, 60 min at 37° C., pH 7.4; read-out: pKi for 5-HT6 (converted)
T1 construct: expressed in transfected cells
Description: The binding activity of compounds of this invention in vitro was determined as follows. Duplicate determinations of ligand affinity are made by competing for binding of [^3H]LSD in cell membranes derived from HEK293 cells stably expressing recombinant human 5-HT6 receptor. This cell line was prepared by the method described by Monsma et al., Molecular Pharmacology, Vol. 43 pp. 320-327 (1993).
All determinations were made in assay buffer containing 50 mM Tris-HCl, 10 mM MgSO4, 0.5 mM EDTA, 1 mM ascorbic acid, pH 7.4 at 37° C., in a 250 microliter reaction volume. Assay tubes containing [^3H] LSD (5 nM), competing ligand, and membrane were incubated in a shaking water bath for 60 min. at 37° C., filtered onto Packard GF-B plates (pre-soaked with 0.3% PEI) using a Packard 96 well cell harvester and washed 3 times in ice cold 50 mM Tris-HCl. Bound [^3H] LSD was determined as radioactive counts per minute using Packard TopCount.
Displacement of [^3H]LSD from the binding sites was quantified by fitting concentration-binding data to a 4-parameter logistic equation:
[formula] where Hill is the Hill slope, [ligand] is the concentration of competing radioligand and IC50 is the concentration of radioligand producing half-maximal specific binding of radioligand. The specific binding window is the difference between the Bmax and the basal parameters.

T1 sequence (P50406 whole entry): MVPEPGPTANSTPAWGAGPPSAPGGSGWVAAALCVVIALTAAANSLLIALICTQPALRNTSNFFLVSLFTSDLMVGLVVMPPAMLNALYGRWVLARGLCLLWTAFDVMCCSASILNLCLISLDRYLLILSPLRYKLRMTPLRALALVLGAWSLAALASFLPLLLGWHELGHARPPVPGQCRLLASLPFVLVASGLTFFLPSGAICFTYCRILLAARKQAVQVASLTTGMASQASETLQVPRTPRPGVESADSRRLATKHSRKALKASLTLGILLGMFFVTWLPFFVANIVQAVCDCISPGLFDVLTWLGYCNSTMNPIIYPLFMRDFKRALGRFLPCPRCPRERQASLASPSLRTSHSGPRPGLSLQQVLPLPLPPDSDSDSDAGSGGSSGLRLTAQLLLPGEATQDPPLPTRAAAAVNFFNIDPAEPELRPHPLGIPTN

Row | melting point | Ki [1] | Compound
1 | 149 to 150 °C | – | O=C1CCCc2ccccc2N1Cc1cccc(N2CCNCC2)c1 (as salt: maleate) [Compound 17, 1-(3-Piperazin-1-yl-benzyl)-1,3,4,5-tetrahydrobenzo[b]azepin-2-one]
2 | – | ~1 nM | COc1cc(CN2C(=O)CCc3ccccc32)cc(N2CCNCC2)c1 [Compound 4, 1-(3-Methoxy-5-piperazin-1-yl-benzyl)-3,4-dihydro-1H-quinolin-2-one]
